Measurements from article PMC11729425 (ACS Pharmacology & Translational Science, 2024).

Columns and labels:
Aged C57BL/6J mice [1] = assay: CK level after 90 min downhill running; assay type: in vivo, C57BL/6JRj mice; conditions: 1 mg/kg in the food, week 15, trend for improvement
Protocol: Figure 2 Chronic oral administration of ALT-007 enhances physical fitness in aged mice. (A) Schematic representation of the study time-line. Compounds were mixed in the food, ALT-007 at 1 mg/kg and DMSO at equivalent volume. At week 0: young mice were 2 months old, and the old mice were 18 months old. (B) Body weight curve over the course of the study (20 weeks). (C) Food intake curve throughout the study. (D–G) Organ mass at sacrifice (week 20), normalized to body weight. (H) Oral glucose tolerance test (oGTT) performed at week 17. (I) Best performance during hanging time normalized to BW at week 7. (J) Best performance during grip strength on the 4 limbs normalized to BW at week 8. (K) Rotarod’s best latency time at week 9. (L) VO2Max performed at week 11. (M) Uphill maximum running time performed at week 13. N = 9 per group. (N) Difference of CK level after—before 90 min downhill running performed at week 15. N = 6 in young, N = 8 in DMSO and N = 7 in ALT-007-treated groups. (O–Q) Measurement of kCAL/h at night (O) and at day (P) and movement recording in x, y, z (Q) during 24 h in CLAMS at week 19. N = 12 per group unless specified otherwise. Quantitative data are expressed as median with IQR. *P < 0.05, **P < 0.01, ***P < 0.001, ****P < 0.0001. ANOVA test was used for multiple comparison, and the Mann–Whitney U test when comparing 2 groups. All tests were 2 sided.

[2] = parameters: method as in PMID 29669694; conditions: compared to Myriocin; cited from earlier work
[3] = test system: C2C12 myoblasts carrying the APPswe mutation and human myoblasts from aged donors and patients with IBM; parameters: method as in PMID 37196064; conditions: cited from earlier work
[4] = test system: immortalized mouse C2C12 myoblasts; assay: Lipid species (ceramides) in C2C12 cells, LC-MS/MS; assay type: cell-based
Protocol: (A) Schematic representation of the de novo sphingolipid synthesis pathway. (B) Chemical structures of myriocin (MYR) and ALT-007. (C) Heatmap analysis comparing the effects of treatments with the indicated concentrations of MYR and ALT-007 on lipid species in C2C12 cells. N = 3 per group. Data are shown as log2 fold change. (D) Body weight curves of mice treated with ALT-007 or vehicle (4 mg/kg/d for 10 days, in the food). (E) Mean food consumption measurement throughout the treatment. (F) Plasma levels of aspartate transaminase (AST), (G) alanine transaminase (ALT) and (H) creatine kinase (CK) after 10 days of treatment with ALT-007 at 4 mg/kg/day. (I) Ceramide levels measured in the gastrocnemius muscle after 10 days of treatment. N = 8 per group. Quantitative data are expressed as median with min to max values. *P < 0.05, **P < 0.01, ***P < 0.001. […]
ESI source conditions were used as follows: dry gas temperature, 230 °C; nebulizer, 35 psi and flow rate of 14 L min^–1; sheath gas temperature, 400 °C and flow rate of 12 L min^–1; nozzle voltage, 500 V; and capillary voltage, 4000 V. Dynamic multiple reaction monitoring was used as the acquisition mode with a total cycle time of 500 ms. […] Raw LC–MS/MS data were processed applying Agilent Quantitative Analysis software (version B.07.00, MassHunter Agilent Technologies). […]

Aged C57BL/6J mice [5] = assay: VO2max test; assay type: in vivo, C57BL/6JRj mice; conditions: 1 mg/kg in the food, week 11
Protocol: VO2max in mice was measured with a calorimetric treadmill (Columbus Instruments) with an incremental speed protocol as previously described.[33]

Aged C57BL/6J mice [6] = assay: Oral glucose tolerance test (oGTT) in aged mice; assay type: in vivo, C57BL/6JRj mice; conditions: 1 mg/kg in the food, week 17
Protocol: For OGTT, mice underwent an overnight fast, and on the morning of the experiment, they were administered a gavage consisting of a 20% glucose solution in water (10 mL [2 g]/kg body weight). Blood glucose levels were monitored from the tail vein using a glucometer prior to the gavage and at 15, 30, 45, 60, 90, 120, 150, and 180 min thereafter. Additionally, blood samples were collected at 0 min (pregavage), 15 and 30 min to assess fasting insulin levels and glucose-stimulated insulin secretion. oGTT was performed 17 weeks post experiment onset as indicated in Figure 2A.

## COc1cc(C(=O)N2CC[C@H](NC(=O)c3ccccc3OC(F)(F)F)c3c2cnn3C(C)C)cnc1OC [ALT-007]
Aged C57BL/6J mice [1]
  creatine kinase in the blood after a downhill running test: nor did it reduce
[2]
  aqueous solubility: improved
[3]
  protein aggregates: potent effect in reducing protein aggregates
[4]; C2C12 myoblasts, compared to Myriocin
  potency in lowering ceramide species: superior potency compared to Myriocin
[4]; concentration of 10 nM
  ceramide levels in C2C12 myoblasts: lower ceramide levels
Aged C57BL/6J mice [5]
  VO2max: significantly higher
Aged C57BL/6J mice [6]
  glucose tolerance test: no difference
